This is an account of results in article PMC12169663, “Deciphering the Tumor Uptake of Heterobivalent (SST2/Albumin) [^64Cu]Cu-NODAGA-cLAB-TATEs” (Journal of Medicinal Chemistry, 2025).

A short description of series [1]: Plasma stability assay, mouse plasma. The format is in vitro ADME. The text has this:
Previously, we discovered that the ^64Cu-labeled NODAGA-cLAB-TATEs with a primary amide functionality within the albumin-binding moiety are subject to a metabolic transformation in mouse plasma. In fact, the primary amide is slowly hydrolyzed to the carboxylic acid, which turned out to be catalyzed by plasma carboxylesterases as proven by blocking this transformation in the presence of bis-para-nitrophenylphosphate. […] As this transformation entails also an increase in the binding affinity to albumin, there might be effects on the biodistribution in mice, in particular the blood circulation time. To investigate this, NODAGA-cLAB6-TATE was designed, with cLAB6 (N3Bz-D-Lys(MPB)-NH2) representing the D-configured pendant of cLAB4 (N3Bz-L-Lys(MPB)-NH2). […] However, the apparent half-lives for both compounds (≈13 and >24 h) are longer compared to the half-lives previously determined for [ ^ 64 Cu]-Cu-NODAGA-cLAB3-TATE and [ ^ 64 Cu]-Cu-NODAGA-cLAB4-TATE (≈6 and ≈3 h, respectively). For better comparability, the stability of [ ^ 64 Cu]-Cu-NODAGA-cLAB4-TATE was again examined with the same mouse plasma batch used for [ ^ 64 Cu]-Cu-NODAGA-cLAB5-TATE and [ ^ 64 Cu]-Cu-NODAGA-cLAB4- scr TATE. […] Therefore, the discrepancy with our previously reported stability data in mouse plasma might result from differences in the activity of plasma carboxylesterases in the obtained mouse plasma. However, the rate of amide hydrolysis is indeed lower for [ ^ 64 Cu]-Cu-NODAGA-cLAB4- scr TATE, independent of the mouse plasma batch, which might indicate that the actual amino acid sequence in these peptides affects the recognition by the plasma carboxylesterases.
2 Stability of the ^64Cu-labeled TATE derivatives in mouse plasma. (A) Radio-HPLC chromatograms of [^64Cu]-Cu-NODAGA-cLAB5-TATE (red), [^64Cu]-Cu-NODAGA-cLAB6-TATE (green), and [^64Cu]-Cu-NODAGA-cLAB- scr TATE (blue) after ^64Cu-labeling and incubation in mouse plasma for 24 h show the transformation of [^64Cu]-Cu-NODAGA-cLAB5-TATE and [^64Cu]-Cu-NODAGA-cLAB4- scr TATE into a metabolite of higher retention time (see the Discussion for explanation). (B) Plot of residual intact radioligands upon incubation with mouse plasma including nonlinear regression (black line) according to one-phase decay for [^64Cu]-Cu-NODAGA-cLAB5-TATE (red circles). The dotted lines represent fractions of 0.5 and 0.9. Data shown are mean values (±SD) from 1 to 3 experiments (each experiment was performed in single execution). […]
(§1) Plasma stability of the radioligands was done as previously described for NODAGA-cLAB-TATE and NODAGA-NES-TATEs. , Briefly, an aliquot of the radioligand was added to plasma and stability was assessed at different time points by withdrawing an aliquot, followed by protein precipitation and analysis by radio-HPLC.

A short description of series [2]: Plasma stability assay, human plasma. The format is in vitro ADME. Conditions: 37 °C, up to 24 h, single experiment, read-out: t1/2 (plasma), human.
Text: Previously, we discovered that the ^64Cu-labeled NODAGA-cLAB-TATEs with a primary amide functionality within the albumin-binding moiety are subject to a metabolic transformation in mouse plasma. In fact, the primary amide is slowly hydrolyzed to the carboxylic acid, which turned out to be catalyzed by plasma carboxylesterases as proven by blocking this transformation in the presence of bis-para-nitrophenylphosphate. […] As this transformation entails also an increase in the binding affinity to albumin, there might be effects on the biodistribution in mice, in particular the blood circulation time. To investigate this, NODAGA-cLAB6-TATE was designed, with cLAB6 (N3Bz-D-Lys(MPB)-NH2) representing the D-configured pendant of cLAB4 (N3Bz-L-Lys(MPB)-NH2). […] However, the apparent half-lives for both compounds (≈13 and >24 h) are longer compared to the half-lives previously determined for [ ^ 64 Cu]-Cu-NODAGA-cLAB3-TATE and [ ^ 64 Cu]-Cu-NODAGA-cLAB4-TATE (≈6 and ≈3 h, respectively). […]
as §1

Series [3] has as its target human serum albumin (HSA) (Homo sapiens, UniProt P02768). The experiment in a line: Radiometric ultrafiltration assay for binding to HSA.
Method: The ultrafiltration assay used to quantify the binding of the ^64Cu-labeled peptides to HSA was performed as previously described for NODAGA-cLAB-TATEs. , Briefly, a constant activity amount of the radioligands (10–15 MBq) were mixed with different HSA concentrations (200 nM–1.4 mM). Aliquots were loaded into the ultrafiltration devices (4104 centrifugal filter units by Millipore; 30 000 Da nominal molecular weight limit, methylcellulose micropartition membranes) and centrifuged. After centrifugation, aliquots from the top and bottom fractions were measured in a γ-counter (PerkinElmer, Wizard^2 2480 automatic gamma counter). The retained fraction was calculated as a quotient of these measurements. The dissociation constant, K d, was calculated using the Morrison equation.
A short description of series [4]: Small-animal PET imaging in subcutaneous MPC tumor allograft model. Conditions: female, NMRI-nu/nu (Rj:NMRI-Foxn1nu/nu), mouse, iv, total radioactivity.
Method: (§2) The biodistribution of [ ^ 64 Cu]­Cu-NODAGA-cLAB­(5/6)-TATE, [ ^ 64 Cu]­Cu-NODAGA-cLAB4- scr TATE, and [ ^ 64 Cu]­Cu-DOTA-EB-TATE was assessed in a subcutaneous MPC tumor allograft model via small-animal PET imaging (Figure A–D). The time-activity curves (TACs) for tumor, kidneys, and heart are shown in Figure A–D (for TACs of muscle and liver, see Figure S6) and the calculated areas under curves (AUC0–48h) and tumor-to-tissue ratios are graphically summarized in Figure E,F, respectively.
(§3) (A–D) Time-activity curves (SUV, decay-corrected, as a function of time up to 48 h) obtained by PET acquisition are depicted (0–2 h in dynamic mode and time points 5, 24, and 48 h p.i.; the x-axes are segmented accordingly). Data shown are mean values (±SD) of a group of MPC tumor-bearing NMRI-nu/nu mice (n = 2, but for cLAB6-TATE n = 4). […] (E) Calculated AUC0–48h values. Data shown are mean values (±SD). (F) Tumor/organ ratios based in the AUC0–48h values.
(§4) A number of 4 × 10^6 MPC cells were resuspended in 40 μL of Dulbecco’s phosphate-buffered saline and injected subcutaneously into the shoulder of 7–10-week-old female nude mice (Rj:NMRI-Foxn1^nu/nu, Janvier Laboratories, Le Genest-Saint-Isle, France). General anesthesia was induced and maintained with inhalation of 10% (v/v) desflurane in 30% oxygen/air (v/v). Tumor growth was monitored using caliper measurements. Animals were sacrificed using CO2 inhalation and cervical dislocation. When diameters of MPC tumors reached 8 ± 3 mm (volumes of 65–282 mm^3), small-animal positron emission tomography (PET) was performed using the nanoScan PET/CT (Mediso Medical Imaging Systems, Budapest, Hungary) and Si78 PET/CT (BRUKER, Billerica, MA) instruments. Scanners were cross-calibrated using a syringe source containing 10 MBq of [^64Cu]­CuCl2 diluted in 2 mL of 0.01 M HCl. Each mouse (n = 2) received between 7 and 10 MBq of the respective radioligand (A m = 40 GBq/μmoL) delivered in 0.154 M NaCl via intravenous injection through a tail vein catheter within the initial 30 s after scan start. […] Standardized uptake values (SUV = [MBq detected activity/mL tissue]/[MBq injected activity/g body weight]) were determined in defined volumes of interest (VOIs) and reported as VOI-averaged SUVmean ± range [min–max]. Assuming a density of 1 g/mL for body tissues, the SUVs become dimensionless.
The test system of series [5] is MPC tumor-bearing NMRI-nu/nu mice. The description is as above.
Method: as §2, §3, §4

*1 amine or outer side, *2 acyl side, *3 side chain or, on linkers, in order; H or OH if unused. Where a SMILES comes first, the peptide text is derived from it. Bridges are numbered along the chain shown (N, C = ends). [ ]: non-standard residue; d: D form. The star is where a group is joined. Ala(1-(4-CO-Ph)triazol-4-yl) = O=C([C@H](Cc1cn(-c2ccc(C(=O)[*:3])cc2)nn1)N[*:1])[*:2]; X1 = O=C(O)CN1CCN(CC(=O)O)CCN([C@H](CCC(=O)*)C(=O)O)CC1; X2 = Cc1ccc(CCCC(=O)NCCCC[C@H](N*)C(N)=O)cc1; AEEA = NCCOCCOCC(=O)O

Sequence of human serum albumin (HSA) (P02768 25-609): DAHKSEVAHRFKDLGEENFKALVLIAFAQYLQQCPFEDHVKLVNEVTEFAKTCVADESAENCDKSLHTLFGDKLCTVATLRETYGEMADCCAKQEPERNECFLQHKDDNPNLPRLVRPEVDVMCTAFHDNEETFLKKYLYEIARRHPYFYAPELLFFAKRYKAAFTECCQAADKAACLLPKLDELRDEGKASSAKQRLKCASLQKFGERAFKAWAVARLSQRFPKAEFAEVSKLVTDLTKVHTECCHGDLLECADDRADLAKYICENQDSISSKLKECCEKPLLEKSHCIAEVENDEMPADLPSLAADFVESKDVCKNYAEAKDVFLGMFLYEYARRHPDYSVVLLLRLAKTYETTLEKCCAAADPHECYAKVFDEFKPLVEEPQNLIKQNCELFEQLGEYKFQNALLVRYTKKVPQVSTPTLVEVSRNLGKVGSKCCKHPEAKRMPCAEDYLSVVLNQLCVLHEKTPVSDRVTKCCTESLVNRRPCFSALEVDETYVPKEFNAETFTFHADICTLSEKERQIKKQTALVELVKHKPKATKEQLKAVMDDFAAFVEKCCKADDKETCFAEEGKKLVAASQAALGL

Regarding `Cc1ccc(CCCC(=O)NCCCC[C@H](NC(=O)c2ccc(-n3cc(C[C@H](NC(=O)CC[C@H](C(=O)O)N4CCN(CC(=O)O)CCN(CC(=O)O)CC4)C(=O)NCCOCCOCC(=O)N[C@@H](CCCCN)C(=O)N[C@H]4CSSC[C@@H](C(=O)N[C@H](C(=O)O)[C@@H](C)O)NC(=O)[C@@H](Cc5c[nH]c6ccccc56)NC(=O)[C@@H](Cc5ccccc5)NC(=O)[C@H]([C@@H](C)O)NC(=O)[C@H](Cc5ccc(O)cc5)NC4=O)nn3)cc2)C(N)=O)cc1` [[64Cu]Cu-NODAGA-cLAB4-scrTATE, metal not drawn] (X1-[Ala(1-(4-CO-Ph)triazol-4-yl)](X2)[AEEA]KCYT[dF][dW]CT-OH; disulfide 4-9), the half-life in series [1] (37 °C, up to 24 h, single experiment, read-out: t1/2 (plasma), mouse) is more than 24 h. In addition, the “hydrolysis of the primary amide in mouse plasma” value in series [1] (24 h, radio-HPLC) is on record as “hydrolyzed”. For the same compound, in series [2], the half-life is more than 24 h. In series [3], this compound had a Kd of 42 µM. The SUV at 24 h in series [4] (muscle) came out at 0.04 SUV. Also, in series [4] (tumor), the SUV at 24 h came to 0.49 SUV. For the same compound, the “integral tumor uptake relative to [64Cu]Cu-NODAGA-cLAB4-TATE” value in series [5] (AUC0–48h) is given as “less than 10%”. In series [5] (PET, i.v., 7–10 MBq/animal), this compound registered an AUC0-48h heart of 41.09 SUVmean*h, an AUC0-48h kidney of 59.26 SUVmean*h, an AUC0-48h liver of 25.84 SUVmean*h and an AUC0-48h tumor of 25 SUVmean*h. For the same compound, the AUC0-48h tumor in series [5] (PET, i.v., 7–10 MBq/animal, listed as cLAB4-scrTATE) is given as 25.35 SUVmean*h. For the same compound, in series [5] (mouse, in vivo), the “AUC0–48h muscle” value was 5.5 SUVmean*h; the “integral tumor uptake, fold lower than [64Cu]Cu-NODAGA-TATE” value was found to be 6 fold; the “integral tumor uptake, fold lower than [64Cu]Cu-NODAGA-cLAB4-TATE” value was 11 fold.

One may read the Kd as the constant that tells how readily two partners part at equilibrium. A high value points to a looser complex.
